# Residues, ends and D or L forms follow the SMILES beside them.
# What was measured:
# [1] = test system: 25 strains of ESKAPE MDROs; format: cell-based; conditions: lowest value over gram-negative strains
# In short: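 Assays used McFarland 0.5-adjusted saline suspensions of overnight NB agar cultures (37°C), diluted 100 times before testing. Each peptide was serially diluted twofold in Mueller–Hinton Broth and incubated with an equal volume of 1 × 10^6 CFU/mL bacteria, per the CLSI method.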
# [2] = test system: intact or abraded skin of mice; test: Mouse skin tolerance test; format: in vivo, C57BL/6J mice; conditions: for skin irritation or pathology at 72 h post-treatment: shaved intact and abraded skin, 10 µL of 150 mg/mL
# Procedure: For the skin local safety study, the intact or abraded skin of the mice was treated once with antimicrobial peptides QLX‐3DV‐1, QLX‐3DV‐2, or water. In brief, ten‐week‐old female C57BL/6J mice (n = 8 for each group) were anesthetized using isoflurane and administered buprenorphine as an analgesic at 0.1 mg/kg intraperitoneally. After removing the back hair of the mice, the skin on the back of the mice in the scratch group was sanded with 60‐grit sandpaper until the skin oozed blood. The intact skin group received no additional treatment except shaving. 10 µL QLX‐3DV‐1 and QLX‐3DV‐2 (150 mg/mL) or water was applied uniformly over the intact or abraded skin to assess the acute dermal toxicity. Groups without any addition served as untreated controls. Weight changes were recorded over 72 h. Histopathological characteristics of treated skin detected by H&E staining on the third day.
# mice = test: Systemic safety, intraperitoneal injection; format: in vivo, C57BL/6J mice; conditions: for hepatorenal toxicity (H&E of liver and kidney): intraperitoneal, 40 mg/kg, 12 h
# Procedure: The 10‐week‐old female C57BL/6J mice were randomly divided into three groups (n = 8 for each group). […] Mouse survival was monitored for 96 h. For pathologic analysis, mouse liver and kidneys were obtained by surgery for hematoxylin‐eosin (HE) staining after treatment with 40 mg/kg QLX‐3DV‐1 and QLX‐3DV‐2 for 12 h.
Structure (SMILES),"MIC against gram-negative strains, as low as [1] [mg/L]","Gross pathology findings (Number of mice) ([2]; mouse, in vivo)","Histopathological findings, Fibrosis in the dermis (Number of mice) ([2]; mouse, in vivo)","Histopathological findings, Lymphohistiocytic infiltration in the dermis (Number of mice) ([2]; mouse, in vivo)","Skin irritation, Erythema formation (Number of mice) ([2]; mouse, in vivo)",skin irritation or pathology at 72 h post-treatment [2],"survival rate over 96 h (mice; intraperitoneal injection, 60 mg/kg, 96 h, n = 8) [%]",hepatorenal toxicity (H&E of liver and kidney) (mice),"Skin irritation, Edema formation (Number of mice) ([2]; mouse, in vivo)"
CC[C@H](C)[C@H](NC(=O)[C@H](CCCCN)NC(=O)[C@H](Cc1c[nH]c2ccccc12)NC(=O)[C@@H](N)CCCCN)C(=O)N[C@@H](CCCCN)C(=O)N[C@@H](Cc1c[nH]c2ccccc12)C(=O)N1CCC[C@H]1C(=O)N[C@@H](CO)C(=O)N[C@@H](CCCNC(=N)N)C(=O)N[C@@H](Cc1c[nH]c2ccccc12)C(=O)N[C@@H](Cc1ccccc1)C(=O)N[C@@H](CCCNC(=N)N)C(=O)N[C@@H](CCCCN)C(=O)N[C@@H](CC(C)C)C(N)=O [QLX-3DV-1] (H-KWKIKWPSRWFRKL-NH2),4,0 / 8,0 / 8,0 / 8,0 / 8,no signs of skin irritation or pathology,100,no significant hepatorenal toxicity,
CC[C@H](C)[C@H](NC(=O)[C@H](CCCCN)NC(=O)[C@H](Cc1c[nH]c2ccccc12)NC(=O)[C@@H](N)CCCCN)C(=O)N[C@@H](CCCCN)C(=O)N[C@@H](Cc1c[nH]c2ccccc12)C(=O)N1CCC[C@H]1C(=O)N[C@H](C(=O)N[C@@H](CCCNC(=N)N)C(=O)N[C@@H](Cc1c[nH]c2ccccc12)C(=O)N[C@@H](Cc1ccccc1)C(=O)N[C@@H](CCCNC(=N)N)C(=O)N[C@@H](CCCCN)C(=O)N[C@@H](CC(C)C)C(N)=O)C(C)C [QLX-3DV-2] (H-KWKIKWPVRWFRKL-NH2),4,0 / 8,0 / 8,0 / 8,0 / 8,no signs of skin irritation or pathology,,no significant hepatorenal toxicity,0 / 8

# — paper PMC13185819, “De Novo Multi‐Mechanism Antimicrobial Peptide Design via Multimodal Deep Learning” (Advanced Science, 2026)
